Assay [1] relates to P. aeruginosa ATCC 27853 (APAE001). Put plainly: MIC assay, CLSI broth microdilution. The assay is classed as cell-based. Conditions: Pseudomonas aeruginosa. The procedure: (§1) Minimum inhibitory concentrations (MIC) were determined by reference Clinical and Laboratory Standards Institute (CLSI) broth microdilution methods per M7-A7 [2006]. Quality control ranges utilizing E. coli ATCC 25922, P. aeruginosa ATCC 27853 and S. aureus ATCC 29213, and interpretive criteria for comparator agents were as published in CLSI M100-S17 [2007]. Briefly, serial two-fold dilutions of the test compounds were prepared at 2× concentration in Mueller Hinton Broth. The compound dilutions were mixed in 96-well assay plates in a 1:1 ratio with bacterial inoculum. The inoculum was prepared by suspension of a colony from an agar plate that was prepared the previous day. Bacteria were suspended in sterile saline and added to each assay plate to obtain a final concentration of 5×10^5 CFU/mL. The plates were incubated at 35° C. for 20 hours in ambient air.
Background: In broth dilution the organism is exposed to a series of concentrations in liquid medium.

Assay [2] relates to E. coli ATCC 25922 (AECO001). The assay can be described thus: MIC assay, CLSI broth microdilution. The assay is classed as cell-based. Also on record: MIC AECO001: unit not given here. Conditions: for MIC: Escherichia coli. The procedure: as §1
The mark [3] stands for this setting: ATCC27853, read-out: MIC APAE001.
The mark [4] stands for this setting: ATCC25922, read-out: MIC AECO001.
Where [5] appears, read: Table 1, APAE001 is ATCC27853, read-out: MIC APAE001.
Setting [6] is: Table 1, AECO001 is ATCC25922, read-out: MIC AECO001.

Molecules are shown by their SMILES. Converted amounts (≈) assume the structure as drawn. Like-named read-outs stand apart in the source and are kept apart here.

For `CN[C@@H]1[C@@H](O)[C@@H](O[C@@H]2[C@@H](O)[C@H](O[C@H]3OC(CNCC(N)CO)=CC[C@H]3N)[C@@H](N)C[C@H]2NC(=O)[C@@H](O)CCN)OC[C@]1(C)O` (stereo partly drawn) [Example 30, 6′-(2-Amino-propanol)-1-(4-amino-2(S)-hydroxy-butyryl)-sisomicin], the figures for the MIC in assay [1] (setting [3]) and in assay [2] (setting [4]) were 1 to 16 mg/L (≈ 1.61 to 25.7 µM) and below 1 mg/L, respectively.
`CN[C@@H]1[C@@H](O)[C@@H](O[C@@H]2[C@@H](O)[C@H](O[C@H]3OC(CNCC4(O)CCNCC4)=CC[C@H]3N)[C@@H](N)C[C@H]2NC(=O)[C@@H](O)CCN)OC[C@]1(C)O` [Example 31]: the minimum inhibitory concentration (MIC) in assay [1] (setting [3]) and in assay [2] (setting [4]) was 1 to 16 mg/L (≈ 1.51 to 24.2 µM) each time.
Regarding `CN[C@@H]1[C@@H](O)[C@@H](O[C@@H]2[C@@H](O)[C@H](O[C@H]3OC(CNCC(O)CCCN)=CC[C@H]3N)[C@@H](N)C[C@H]2NC(=O)[C@@H](O)CCN)OC[C@]1(C)O` (stereo partly drawn) [Example 32, 6′-(2-Hydroxy-5-amino-pentyl)-1-(4-amino-2(S)-hydroxy-butyryl)-sisomicin], the minimum inhibitory concentration (MIC) in assay [1] (setting [3]) was 1 to 16 mg/L (≈ 1.54 to 24.6 µM); in assay [2] (setting [4]), below 1 mg/L.
In the case of `CN[C@@H]1[C@@H](O)[C@@H](O[C@@H]2[C@@H](O)[C@H](O[C@H]3OC(CNC[C@H]4C[C@H](N)C4)=CC[C@H]3N)[C@@H](N)C[C@H]2NC(=O)[C@@H](O)CCN)OC[C@]1(C)O` [Example 33, 6′-(Methyl-trans-3-amino-cyclobutyl)-1-(4-amino-2(S)-hydroxy-butyryl)-sisomicin], the MIC in assay [1] (setting [3]) is 1 to 16 mg/L (≈ 1.58 to 25.3 µM); in assay [2] (setting [4]), below 1 mg/L.
`CN[C@@H]1[C@@H](O)[C@@H](O[C@@H]2[C@@H](O)[C@H](O[C@H]3OC(CNCC(O)CCN)=CC[C@H]3N)[C@@H](N)C[C@H]2NC(=O)C2(O)CCNC2)OC[C@]1(C)O` (some centres unmarked) [Example 35]: the MIC in assay [1] (setting [3]) is 1 to 16 mg/L (≈ 1.54 to 24.7 µM); in assay [2] (setting [4]) it was below 1 mg/L.
On to `CN[C@@H]1[C@@H](O)[C@@H](O[C@@H]2[C@@H](O)[C@H](O[C@H]3OC(CNCCO)=CC[C@H]3N)[C@@H](N)C[C@H]2NC(=O)C2(O)CNC2)OC[C@]1(C)O` [Example 37], for which the minimum inhibitory concentration (MIC) was 1 to 16 mg/L (≈ 1.69 to 27.1 µM) in assay [1] (setting [3]) and below 1 mg/L in assay [2] (setting [4]).
With `CN[C@@H]1[C@@H](O)[C@@H](O[C@@H]2[C@@H](O)[C@H](O[C@H]3OC(CNCCN)=CC[C@H]3N)[C@@H](N)C[C@H]2NC(=O)[C@@H](O)CCN)OC[C@]1(C)O` [Example 38, 6′-(2-Amino-ethyl)-1-(4-amino-2(S)-hydroxy-butyryl)-sisomicin], the results for the MIC in assay [1] (setting [3]) and in assay [2] (setting [4]) were 1 to 16 mg/L (≈ 1.69 to 27 µM) and below 1 mg/L, respectively.
The like results for `CN[C@@H]1[C@@H](O)[C@@H](O[C@@H]2[C@@H](O)[C@H](O[C@H]3OC(CNCCCN)=CC[C@H]3N)[C@@H](N)C[C@H]2NC(=O)C2(O)CCNC2)OC[C@]1(C)O` (some centres unmarked) [Example 40] were, in that order, 1 to 16 mg/L (≈ 1.62 to 25.9 µM) and 1 to 16 mg/L (≈ 1.62 to 25.9 µM).
Turning to `CN[C@@H]1[C@@H](O)[C@@H](O[C@@H]2[C@@H](O)[C@H](O[C@H]3OC(CNCC4CC4)=CC[C@H]3N)[C@@H](N)C[C@H]2NC(=O)C2(O)CCNC2)OC[C@]1(C)O` (some centres unmarked) [Example 41], the minimum inhibitory concentration (MIC) in assay [1] (setting [3]) was 1 to 16 mg/L (≈ 1.63 to 26 µM); in assay [2] (setting [4]), below 1 mg/L.
In the case of `CN[C@@H]1[C@@H](O)[C@@H](O[C@@H]2[C@@H](O)[C@H](O[C@H]3OC(CNCC(O)CN)=CC[C@H]3N)[C@@H](N)C[C@H]2NC(=O)C2(O)CCNC2)OC[C@]1(C)O` (some centres unmarked) [Example 42, 6′-(2-Hydroxy-3-amino-propyl)-1-(3-hydroxy-pyrrolidin-3-yl-acetyl)-sisomicin], the minimal inhibitory concentration (MIC) in assay [1] (setting [3]) and in assay [2] (setting [4]) was 1 to 16 mg/L (≈ 1.58 to 25.2 µM) in each case.
As for `CN[C@@H]1[C@@H](O)[C@@H](O[C@@H]2[C@@H](O)[C@H](O[C@H]3OC(CNCCCCN)=CC[C@H]3N)[C@@H](N)C[C@H]2NC(=O)[C@@H](O)CCN)OC[C@]1(C)O` [Example 43, 6′-(4-Amino-butyl)-1-(4-amino-2(S)-hydroxy-butyryl)-sisomicin], the minimum inhibitory concentration (MIC) in assay [1] (setting [3]) and in assay [2] (setting [4]) was below 1 mg/L each time.
With `CN[C@@H]1[C@@H](O)[C@@H](O[C@@H]2[C@@H](O)[C@H](O[C@H]3OC(CNCCCCCN)=CC[C@H]3N)[C@@H](N)C[C@H]2NC(=O)[C@@H](O)CCN)OC[C@]1(C)O` [Example 44, 6′-(5-Amino-pentyl)-1-(4-amino-2(S)-hydroxy-butyryl)-sisomicin], the minimum inhibitory concentration (MIC) is 1 to 16 mg/L (≈ 1.58 to 25.2 µM) in assay [1] (setting [3]) and below 1 mg/L in assay [2] (setting [4]).
In the case of `CN[C@@H]1[C@@H](O)[C@@H](O[C@@H]2[C@@H](O)[C@H](O[C@H]3OC(CNCCC4CNCCN4C)=CC[C@H]3N)[C@@H](N)C[C@H]2NC(=O)[C@@H](O)CCN)OC[C@]1(C)O` (some centres unmarked) [Example 45], the minimum inhibitory concentration (MIC) in assay [1] (setting [5]) is 1 to 16 mg/L (≈ 1.48 to 23.7 µM); in assay [2] (setting [6]) it was below 1 mg/L.
For `CN[C@@H]1[C@@H](O)[C@@H](O[C@@H]2[C@@H](O)[C@H](O[C@H]3OC(CNCC4(O)CC(N)C4)=CC[C@H]3N)[C@@H](N)C[C@H]2NC(=O)[C@@H](O)CCN)OC[C@]1(C)O` (some centres unmarked) [Example 46], the values for the MIC in assay [1] (setting [3]) and in assay [2] (setting [4]) were 1 to 16 mg/L (≈ 1.54 to 24.7 µM) and below 1 mg/L, respectively.
As to `CN[C@@H]1[C@@H](O)[C@@H](O[C@@H]2[C@@H](O)[C@H](O[C@H]3OC(CNCC4(O)CC(N)C4)=CC[C@H]3N)[C@@H](N)C[C@H]2NC(=O)C2(O)CNC2)OC[C@]1(C)O` (some centres unmarked) [Example 47], the MIC in assay [1] (setting [3]) and in assay [2] (setting [4]) was 1 to 16 mg/L (≈ 1.55 to 24.8 µM) in each case.
`CN[C@@H]1[C@@H](O)[C@@H](O[C@@H]2[C@@H](O)[C@H](O[C@H]3OC(CNCCCN)=CC[C@H]3N)[C@@H](N)C[C@H]2NC(=O)[C@@H](O)CCN)OC[C@]1(C)O` [Example 48, 6′-(3-Amino-propyl)-1-(4-amino-2(S)-hydroxy-butyryl)-sisomicin]: the figures for the MIC in assay [1] (setting [5]) and in assay [2] (setting [6]) were 1 to 16 mg/L (≈ 1.65 to 26.4 µM) and below 1 mg/L, respectively. For the same compound, the “MIC AECO001” value in assay [2] (Table 3, E. coli ATCC25922) is given as 1.
For `CN[C@@H]1[C@@H](O)[C@@H](O[C@@H]2[C@@H](O)[C@H](O[C@H]3OC(CNCC4CCCN4)=CC[C@H]3N)[C@@H](N)C[C@H]2NC(=O)[C@@H](O)CCN)OC[C@]1(C)O` (stereo partly drawn) [Example 49, 6′-(Methyl-pyrrolidin-2-yl)-1-(4-amino-2(S)-hydroxy-butyryl)-sisomicin], the minimum inhibitory concentration (MIC) in assay [1] (setting [3]) is 1 to 16 mg/L (≈ 1.58 to 25.3 µM); in assay [2] (setting [4]) it was below 1 mg/L.
With `CN[C@@H]1[C@@H](O)[C@@H](O[C@@H]2[C@@H](O)[C@H](O[C@H]3OC(CNC[C@H](O)C(=O)O)=CC[C@H]3N)[C@@H](N)C[C@H]2NC(=O)[C@@H](O)CCN)OC[C@]1(C)O` [Example 50, 6′-(2(S)-Hydroxy-3-propanoic)-1-(4-amino-2(S)-hydroxy-butyryl)-sisomicin], the MIC in assay [1] (setting [3]) and in assay [2] (setting [4]) was above 16 mg/L throughout.
As for `CN[C@@H]1[C@@H](O)[C@@H](O[C@@H]2[C@@H](O)[C@H](O[C@H]3OC(CNCC(C)(C)CN)=CC[C@H]3N)[C@@H](N)C[C@H]2NC(=O)[C@@H](O)CN)OC[C@]1(C)O` [Example 51, 6′-(2,2-Dimethyl-3-amino-propyl)-1-(3-amino-2(S)-hydroxy-propionyl)-sisomicin], the figures for the MIC in assay [1] (setting [3]) and in assay [2] (setting [4]) were above 16 mg/L and below 1 mg/L, respectively.
The corresponding values for `CN[C@@H]1[C@@H](O)[C@@H](O[C@@H]2[C@@H](O)[C@H](O[C@H]3OC(CNCCC(N)C4CC4)=CC[C@H]3N)[C@@H](N)C[C@H]2NC(=O)[C@@H](O)CN)OC[C@]1(C)O` (stereo partly drawn) [Example 52, 6′-(3-Amino-3-cyclopropyl-propyl)-1-(3-amino-2(S)-hydroxy-propionyl)-sisomicin] are 1 to 16 mg/L (≈ 1.58 to 25.3 µM) and below 1 mg/L.

A word on the MIC: it is the smallest concentration in the dilution series that meets the test's criterion for growth inhibition.
